# Where two headings read alike, the source gives them in different places.
# Test system: HCV 1b-377-neo replicon cells
# Experiment: HCV replicon assay, HCV 1b-377-neo replicon cells (1b FRET)
# Assay type: cell-based, Hepatitis C virus genotype 1b
# Settings: HCV 1b-377-neo replicon cells, HCV 1b genotype, read-out: EC50 range against HCV 1b (Table 2, Range)
# Outline: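 Compounds were tested in genotype 1b subgenomic replicon cells carrying a neomycin marker, alongside a matched replicon line with an NS5A Y2065H substitution that confers resistance to a reference NS5A inhibitor.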
Compound,EC50 (Hepatitis C virus) [nM],EC50 [nM]
"COC(=O)N[C@@H](C(=O)N1CCC[C@H]1c1ncc(-c2ccc(-c3ccc(-c4cnc([C@@H]5CCCN5C(=O)CN(C)C)[nH]4)cc3)cc2)[nH]1)c1ccccc1 [Example 37, methyl ((1R)-2-((2S)-2-(5-(4′-(2-((2S)-1-(N,N-dimethylglycyl)-2-pyrrolidinyl)-1H-imidazol-5-yl)-4-biphenylyl)-1H-imidazol-2-yl)-1-pyrrolidinyl)-2-oxo-1-phenylethyl)carbamate]",0.001 to 0.999,–
"COC(=O)N[C@@H](C(=O)N1CCC[C@H]1c1ncc(-c2ccc(-c3ccc(-c4cnc([C@@H]5CCCN5C(=O)[C@H](c5ccccc5)N(C)C)[nH]4)cc3)cc2)[nH]1)c1ccccc1 [Example 38, methyl ((1R)-2-((2S)-2-(5-(4′-(2-((2S)-1-((2S)-2-(dimethylamino)-2-phenylacetyl)-2-pyrrolidinyl)-1H-imidazol-5-yl)-4-biphenylyl)-1H-imidazol-2-yl)-1-pyrrolidinyl)-2-oxo-1-phenylethyl)carbamate]",0.001 to 0.999,–
"COC(=O)N[C@@H](C(=O)N1CCC[C@H]1c1ncc(-c2ccc(-c3ccc(-c4cnc([C@@H]5CCCN5C(=O)CN5CCOCC5)[nH]4)cc3)cc2)[nH]1)c1ccccc1 [Example 39, methyl ((1R)-2-((2S)-2-(5-(4′-(2-((2S)-1-(4-morpholinylacetyl)-2-pyrrolidinyl)-1H-imidazol-5-yl)-4-biphenylyl)-1H-imidazol-2-yl)-1-pyrrolidinyl)-2-oxo-1-phenylethyl)carbamate]",0.001 to 0.999,–
"COC(=O)NCC(=O)N1CCC[C@H]1c1ncc(-c2ccc(-c3ccc(-c4cnc([C@@H]5CCCN5C(=O)[C@H](NC(=O)OC)c5ccccc5)[nH]4)cc3)cc2)[nH]1 [Example 40, methyl (2-((2S)-2-(5-(4′-(2-((2S)-1-((2R)-2-((methoxycarbonyl)amino)-2-phenylacetyl)-2-pyrrolidinyl)-1H-imidazol-5-yl)-4-biphenylyl)-1H-imidazol-2-yl)-1-pyrrolidinyl)-2-oxoethyl)carbamate]",0.001 to 0.999,–
"COC(=O)N[C@@H](C(=O)N1CCC[C@H]1c1ncc(-c2ccc(-c3ccc(-c4cnc([C@@H]5CCCN5C(=O)CNC(C)=O)[nH]4)cc3)cc2)[nH]1)c1ccccc1 [Example 41, methyl ((1R)-2-((2S)-2-(5-(4′-(2-((2S)-1-(N-acetylglycyl)-2-pyrrolidinyl)-1H-imidazol-5-yl)-4-biphenylyl)-1H-imidazol-2-yl)-1-pyrrolidinyl)-2-oxo-1-phenylethyl)carbamate]",0.001 to 0.999,–
"COC(=O)N[C@@H](C(=O)N1CCC[C@H]1c1ncc(-c2ccc(-c3ccc(-c4cnc([C@@H]5CCCN5C(=O)[C@@H](c5ccccc5)N(C)C)[nH]4)cc3)cc2)[nH]1)c1ccccc1 [Example 42, methyl ((1R)-2-((2S)-2-(5-(4′-(2-((2S)-1-((2R)-2-(dimethylamino)-2-phenylacetyl)-2-pyrrolidinyl)-1H-imidazol-5-yl)-4-biphenylyl)-1H-imidazol-2-yl)-1-pyrrolidinyl)-2-oxo-1-phenylethyl)carbamate]",0.001 to 0.999,–
"COC(=O)N[C@@H](C(=O)N1CCC[C@H]1c1ncc(-c2ccc(-c3ccc(-c4cnc([C@@H]5CCCN5C(=O)[C@H](O)c5ccccc5)[nH]4)cc3)cc2)[nH]1)c1ccccc1 [Example 43, methyl ((1R)-2-((2S)-2-(5-(4′-(2-((2S)-1-((2R)-2-hydroxy-2-phenylacetyl)-2-pyrrolidinyl)-1H-imidazol-5-yl)-4-biphenylyl)-1H-imidazol-2-yl)-1-pyrrolidinyl)-2-oxo-1-phenylethyl)carbamate]",0.001 to 0.999,–
"COC(=O)N[C@@H](C(=O)N1CCC[C@H]1c1ncc(-c2ccc(-c3ccc(-c4cnc([C@@H]5CCCN5C(=O)C5CCN(C)CC5)[nH]4)cc3)cc2)[nH]1)c1ccccc1 [Example 44, methyl ((1R)-2-((2S)-2-(5-(4′-(2-((2S)-1-((1-methyl-4-piperidinyl)carbonyl)-2-pyrrolidinyl)-1H-imidazol-5-yl)-4-biphenylyl)-1H-imidazol-2-yl)-1-pyrrolidinyl)-2-oxo-1-phenylethyl)carbamate]",0.001 to 0.999,–
"COC(=O)N[C@@H](C(=O)N1CCC[C@H]1c1ncc(-c2ccc(-c3ccc(-c4cnc([C@@H]5CCCN5C(=O)C5CCOCC5)[nH]4)cc3)cc2)[nH]1)c1ccccc1 [Example 45, methyl ((1R)-2-oxo-1-phenyl-2-((2S)-2-(5-(4′-(2-((2S)-1-(tetrahydro-2H-pyran-4-ylcarbonyl)-2-pyrrolidinyl)-1H-imidazol-5-yl)-4-biphenylyl)-1H-imidazol-2-yl)-1-pyrrolidinyl)ethyl)carbamate]",0.001 to 0.999,–
"COC(=O)N[C@@H](C(=O)N1CCC[C@H]1c1ncc(-c2ccc(-c3ccc(-c4cnc([C@@H]5CCCN5C(=O)Cc5ccccn5)[nH]4)cc3)cc2)[nH]1)c1ccccc1 [Example 46, methyl ((1R)-2-oxo-1-phenyl-2-((2S)-2-(5-(4′-(2-((2S)-1-(2-pyridinylacetyl)-2-pyrrolidinyl)-1H-imidazol-5-yl)-4-biphenylyl)-1H-imidazol-2-yl)-1-pyrrolidinyl)ethyl)carbamate]",–,0.001 to 0.999
"COC(=O)N[C@@H](C(=O)N1CCC[C@H]1c1ncc(-c2ccc(-c3ccc(-c4cnc([C@@H]5CCCN5C(=O)Cc5cccnc5)[nH]4)cc3)cc2)[nH]1)c1ccccc1 [Example 47, methyl ((1R)-2-oxo-1-phenyl-2-((2S)-2-(5-(4′-(2-((2S)-1-(3-pyridinylacetyl)-2-pyrrolidinyl)-1H-imidazol-5-yl)-4-biphenylyl)-1H-imidazol-2-yl)-1-pyrrolidinyl)ethyl)carbamate]",0.001 to 0.999,–
"COC(=O)N[C@@H](C(=O)N1CCC[C@H]1c1ncc(-c2ccc(-c3ccc(-c4cnc([C@@H]5CCCN5C(=O)Cc5ccncc5)[nH]4)cc3)cc2)[nH]1)c1ccccc1 [Example 48, methyl ((1R)-2-oxo-1-phenyl-2-((2S)-2-(5-(4′-(2-((2S)-1-(4-pyridinylacetyl)-2-pyrrolidinyl)-1H-imidazol-5-yl)-4-biphenylyl)-1H-imidazol-2-yl)-1-pyrrolidinyl)ethyl)carbamate]",0.001 to 0.999,–
"COC(=O)N[C@@H](C(=O)N1CCC[C@H]1c1ncc(-c2ccc(-c3ccc(-c4cnc([C@@H]5CCCN5C(=O)c5cncn5C)[nH]4)cc3)cc2)[nH]1)c1ccccc1 [Example 49, methyl ((1R)-2-((2S)-2-(5-(4′-(2-((2S)-1-((1-methyl-1H-imidazol-5-yl)carbonyl)-2-pyrrolidinyl)-1H-imidazol-5-yl)-4-biphenylyl)-1H-imidazol-2-yl)-1-pyrrolidinyl)-2-oxo-1-phenylethyl)carbamate]",0.001 to 0.999,–
"COC(=O)N[C@@H](C(=O)N1CCC[C@H]1c1ncc(-c2ccc(-c3ccc(-c4cnc([C@@H]5CCCN5C(=O)N(C)C)[nH]4)cc3)cc2)[nH]1)c1ccccc1 [Example 50, methyl ((1R)-2-((2S)-2-(5-(4′-(2-((2S)-1-(dimethylcarbamoyl)-2-pyrrolidinyl)-1H-imidazol-5-yl)-4-biphenylyl)-1H-imidazol-2-yl)-1-pyrrolidinyl)-2-oxo-1-phenylethyl)carbamate]",100 to 999,–
"COC(=O)N[C@@H](C(=O)N1CCC[C@H]1c1ncc(-c2ccc(-c3ccc(-c4cnc([C@@H]5CCCN5C(=O)[C@H]5CCCN5C)[nH]4)cc3)cc2)[nH]1)c1ccccc1 [Example 51, methyl ((1R)-2-((2S)-2-(5-(4′-(2-((2S)-1-(1-methyl-D-prolyl)-2-pyrrolidinyl)-1H-imidazol-5-yl)-4-biphenylyl)-1H-imidazol-2-yl)-1-pyrrolidinyl)-2-oxo-1-phenylethyl)carbamate]",0.001 to 0.999,–
"COC(=O)N[C@@H](C(=O)N1CCC[C@H]1c1ncc(-c2ccc(-c3ccc(-c4cnc([C@@H]5CCCN5C(=O)[C@@H]5CCCN5C)[nH]4)cc3)cc2)[nH]1)c1ccccc1 [Example 52, methyl ((1R)-2-((2S)-2-(5-(4′-(2-((2S)-1-(1-methyl-L-propyl)-2-pyrrolidinyl)-1H-imidazol-5-yl)-4-biphenylyl)-1H-imidazol-2-yl)-1-pyrrolidinyl)-2-oxo-1-phenylethyl)carbamate]",–,0.001 to 0.999
"COC(=O)N[C@@H](C(=O)N1CCC[C@H]1c1ncc(-c2ccc(-c3ccc(-c4cnc([C@@H]5CCCN5C(=O)[C@@H](C)NC(C)=O)[nH]4)cc3)cc2)[nH]1)c1ccccc1 [Example 53, methyl ((1R)-2-((2S)-2-(5-(4′-(2-((2S)-1-(N-acetyl-D-alanyl)-2-pyrrolidinyl)-1H-imidazol-5-yl)-4-biphenylyl)-1H-imidazol-2-yl)-1-pyrrolidinyl)-2-oxo-1-phenylethyl)carbamate]",0.001 to 0.999,–
"COC(=O)N[C@@H](C(=O)N1CCC[C@H]1c1ncc(-c2ccc(-c3ccc(-c4cnc([C@@H]5CCCN5C(=O)[C@H](C)NC(C)=O)[nH]4)cc3)cc2)[nH]1)c1ccccc1 [Example 54, methyl ((1R)-2-((2S)-2-(5-(4′-(2-((2S)-1-(N-acetyl-L-ananyl)-2-pyrrolidinyl)-1H-imidazol-5-yl)-4-biphenylyl)-1H-imidazol-2-yl)-1-pyrrolidinyl)-2-oxo-1-phenylethyl)carbamate]",–,0.001 to 0.999
"COCC(=O)N1CCC[C@H]1c1ncc(-c2ccc(-c3ccc(-c4cnc([C@@H]5CCCN5C(=O)[C@H](NC(=O)OC)c5ccccc5)[nH]4)cc3)cc2)[nH]1 [Example 55, methyl ((1R)-2-((2S)-2-(5-(4′-(2-((2S)-1-(methoxyacetyl)-2-pyrrolidinyl)-1H-imidazol-5-yl)-4-biphenylyl)-1H-imidazol-2-yl)-1-pyrrolidinyl)-2-oxo-1-phenylethyl)carbamate]",0.001 to 0.999,–
"CC[C@@H](O)C(=O)N1CCC[C@H]1c1ncc(-c2ccc(-c3ccc(-c4cnc([C@@H]5CCCN5C(=O)[C@H](NC(=O)OC)c5ccccc5)[nH]4)cc3)cc2)[nH]1 [Example 56, methyl ((1R)-2-((2S)-2-(5-(4′-(2-((2S)-1-((2R)-2-hydroxybutanoyl)-2-pyrrolidinyl)-1H-imidazol-5-yl)-4-biphenylyl)-1H-imidazol-2-yl)-1-pyrrolidinyl)-2-oxo-1-phenylethyl)carbamate]",0.001 to 0.999,–

# Reference: patent publication US8574563B2 (Bristol-Myers Squibb Company, priority 2006, dated 2013)
